Patent US20160175223A1, “ANTI-AGING COMPOSITIONS COMPRISING BILE ACID-FATTY ACID CONJUGATES” (GALDERM THERAPEUTICS LTD., priority 2013, published 2016)

How the values were obtained:
ABCA1 [1] = test: Direct measurement of ABCA1 protein in skin fibroblasts; format: cell-based, human; details: efflux in the presence of FABAC, compared to untreated cells
Protocol: (§1) Steamchol was incubated with human skin fibroblasts for 20 hours to measure cholesterol loading in the presence of [^3H] cholesterol. After series of washing and adding efflux containing cholesterol acceptors, medium was collected and centrifuged and cell associated cholesterol was compared to effluxed cholesterol in the presence and absence of the similar FABAC. This research project also included quantification of mRNA of ABCA1 and direct measurement of ABCA1.
(§2) Similarly, cells were pre-incubated with [^3H] cholesterol, washed four times and then placed in an incubation medium with or without Aramchol for 20 hours. Following the incubation, radioactivity was measured separately in the medium and in the cells. Cholesterol efflux percentage was calculated as radioactivity in medium divided by the total radioactivity (cells+medium).

human skin fibroblasts = test: [3H] cholesterol efflux in skin fibroblasts; format: cell-based; details: 20 hours incubation, compared to untreated cells
Protocol: as §1, §2

[2] = tested on: Full-thickness Epiderm cultures (EFT-400, MatTek); test: Previous viability assay; format: cell-based; details: concentrations of 40.0, 13.3, 4.4, 1.5 ug/mL
Description: (§3) Full-thickness Epiderm cultures (EFT-400, MatTek) were used to determine toxicity in response to topical application of a test material (Steamchol).

[3] = tested on: Full-thickness Epiderm cultures (EFT-400, MatTek); test: Cytotoxicity assay (MTT) after topical application to full-thickness skin cultures; format: cell-based; details: 24-hour exposure; for Cell Viability: 10 μL topical, MTT, vs untreated control
Protocol: as §3
The test material was provided as a powder. Test solutions were prepared by adding the appropriate amount of powdered material to 1 mL DMSO. Lower concentrations were made by serial dilution with 100% DMSO. The final test material concentrations and treatments are listed below: • 2% Steamchol (20,000 ug/mL) • 1% Steamchol (10,000 ug/mL) • 0.1% Steamchol (1000 ug/mL) • 0.01% Steamchol (100 ug/mL) • vehicle control (100% DMSO) • untreated control
Full-thickness skin cultures (EFT-400) were maintained as required to ensure viability; the cultures were equilibrated at 37° C. and 5% CO2 for 24 hours prior to application of test materials. Test material was applied to the surface of each culture using sterile techniques (10 μL applied to each culture). Two cultures were assigned to each treatment group. Two EFT cultures served as an untreated control (also referred to as negative control in FIG. 2), and two other EFT cultures served as a positive control (100 μL 1% Triton X-100).
Following a 24-hour incubation period with the test material, cultures were processed for cell toxicity analysis using an MTT [(3-4,5-dimethylthiazole-2-yl)2,5-diphenyltetrazoliumbromide] assay (reagents purchased from MatTek). Viable tissues converted MTT into a blue formazan salt that was detected by measuring absorbance at a specific wavelength of light (A570). Percent viability was calculated by comparing the A570 reading of the test cultures to the A570 of the untreated control culture, using the following formula: [Treated A570/Untreated A570]*100.

ABCA1 [4] = test: Taqman gene expression in Epiderm FT skin culture: ABCA1 mRNA; format: cell-based, human; details: 0.5% (5000 ug/mL) in DMSO, 24 hours post-application, vs DMSO control
Protocol: A full-thickness in vitro skin culture model, Epiderm FT (MatTek, MA), was treated with Steamchol. Steamchol in DMSO (0.5%, 5000 ug/mL) was applied to the surface of each test culture and cells were collected 24 hours post-application. Control cells were similarly treated with DMSO without Steamchol.
Tissues were collected in RNA later for gene expression analysis. Gene expression was analyzed using validated Taqman gene expression assays in Taqman Low Density Array (TLDA) format. 94 genes that regulate a variety of known functions in skin were analyzed including the ABCA1 and SCD1 genes. The experimental set up was conducted in a 96-well format using validated Taqman gene expression assays. Each gene was assayed in duplicates. Statistics were carried out using the StatMiner software v4.2 (unpaired t-tests, p≦0.05, N=4) to compare the Steamchol group to the DMSO control group.

Compound	ABCA1 protein concentration increase (ABCA1 [1])	Cholesterol efflux in fibroblasts (human skin fibroblasts)	Toxicity in viability assay [2]	Cell Viability ([3]; 0.01% Steamchol (100 ug/mL) in DMSO)	Cell Viability ([3]; 0.1% Steamchol (1000 ug/mL) in DMSO)	Cell Viability ([3]; 1% Steamchol (10,000 ug/mL) in DMSO)	Cell Viability ([3]; 2% Steamchol (20,000 ug/mL) in DMSO)	Cell viability compared to the untreated control ([3]; all dilutions tested (0.01%-2% in DMSO))	Change in mRNA levels of ABCA1 (ABCA1 [4])
CCCCCCCCCCCCCCCCCCCC(=O)N[C@H]1CC[C@@]2(C)[C@@H](C1)C[C@@H](O)[C@@H]1[C@@H]2C[C@H](O)[C@]2(C)[C@@H]([C@H](C)CCC(=O)O)CC[C@@H]12 [Aramchol, 3β-arachidylamido-7α,12α, dihidroxy-5β-cholan-24-oic acid]	approximately 2 fold	significantly enhanced	–	–	–	–	–	–	–
CCCCCCCCCCCCCCCCCC(=O)N[C@H]1CC[C@@]2(C)[C@@H](C1)C[C@@H](O)[C@@H]1[C@@H]2C[C@H](O)[C@]2(C)[C@@H]([C@H](C)CCC(=O)O)CC[C@@H]12 [Steamchol, 3β-stearylamido-7α,12α, dihidroxy-5β-cholan-24-oic acid]	approximately 2 fold	significantly enhanced	no toxicity was observed	100.41%	99.98%	96.88%	93.89%	~100%	No significant change
